Results taken from article PMC3117731, “A systems biology approach to dynamic modeling and inter-subject variability of statin pharmacokinetics in human hepatocytes” (BMC Systems Biology, 2011).
Several values for one entry are separate records, joined by “and”; a condition that tells them apart may be missing. Equal entries are not always repeated. Where two headings read alike, the source gives them in different places.

Key:
PON enzymes = experiment: PON mediated lactone hydrolysis, rate constants estimated in the optimization procedure; type: in vitro ADME, human; conditions: nominal value from optimization
Description: The lactone metabolites are either hydrolyzed chemically to the respective acid metabolites inside (c) or outside (m) the cell, or enzymatically by the contribution of PON enzymes inside the cell. Both reactions are described as first order kinetics(4) [drawing 6]
Therefore, maximal rate constants r max of CYP3A4 hydroxylation and UGT1A3 lactonization were predicted for individual 2 and 3 via the relative abundance approach (equation (11)) using the r max -parameters of individual 1 (Table 3) and the protein concentrations observed on the primary human hepatocytes (Table 4). These parameters were then fixed in the optimization. Further, the rate constants k of PON mediated lactone hydrolysis of individual 2 and 3 were estimated in the optimization procedure.

[1] = system: primary human hepatocytes; experiment: Apparent (lumped active transport and passive diffusion) import and export in primary human hepatocytes; type: in vitro ADME
Description: Thus, in the following, mechanisms of active transport and passive diffusion are lumped, resulting in the apparent transport rate for import,(12) [drawing 22]
and in the apparent transport rate for export(13) [drawing 23]
described by the product of apparent rate constant κ im/ex of import or export and extra- or intracellular concentration [drawing 24] , respectively (Figure 3). Consequently, the rate constants κ of import and export are set individually, and were to be estimated in the optimization procedure.

[2] = design: method as in PMID 8272408; conditions: estimated from experimental observations; assumed to be same for ASLpOH and ASLoOH; cited from earlier work
CYP3A4 = CYP3A4 (Homo sapiens, UniProt P08684)
Sequence of CYP3A4 (P08684 2-503 limits assumed): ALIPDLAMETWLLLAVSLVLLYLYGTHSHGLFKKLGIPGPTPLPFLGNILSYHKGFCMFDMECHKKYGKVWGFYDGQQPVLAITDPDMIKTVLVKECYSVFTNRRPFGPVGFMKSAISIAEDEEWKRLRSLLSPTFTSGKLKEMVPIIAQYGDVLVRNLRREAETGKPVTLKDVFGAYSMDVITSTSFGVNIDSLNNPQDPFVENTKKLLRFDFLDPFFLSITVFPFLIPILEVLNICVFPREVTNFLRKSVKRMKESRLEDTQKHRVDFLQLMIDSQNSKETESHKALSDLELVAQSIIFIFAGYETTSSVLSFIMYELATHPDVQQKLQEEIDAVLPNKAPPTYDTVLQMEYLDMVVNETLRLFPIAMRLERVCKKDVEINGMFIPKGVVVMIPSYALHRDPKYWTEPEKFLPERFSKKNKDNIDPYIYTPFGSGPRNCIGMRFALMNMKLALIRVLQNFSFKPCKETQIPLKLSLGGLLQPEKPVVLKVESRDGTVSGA

[3] = system: primary human hepatocytes; experiment: Time-series experiment of atorvastatin biotransformation in primary human hepatocytes (extra- and intracellular metabolites by LC-MS-MS, model fit); type: in vitro ADME; conditions: individual 1; 10 μM AS
Description: Hepatocytes were cultured on collagen gel precoated 6-well plates at a density of 1.5·10^6 cells/well. Cells were allowed to attach to the collagen layer. After transport, culture media was disposed and attached cells were cultured 24 h at 37°C in a humidified chamber with 95%/5% air/CO2 in serum-free medium WME, supplemented with albumin (0.1% (v/v)), penicillin/streptomycin (100 U/ml), stabilized L-glutamine (2 mM), dexamethasone dihydrogenphosphate (0.025% (v/v)) and ITS-X (5 mg insulin, 3.35 μg natrium-selenit, 2.75 mg transferrin and 1 mg ethanolamine), further named SFM.
At specified time-points, three wells were further treated for the preparation of samples for the measurement of extracellular and intracellular metabolites, respectively. SFM media was collected and 50 μL formic acid and deuterated internal standard was added for the further measurement of extracellular metabolites. Cells were harvested in pre-cooled albumin-free SFM, disrupted by freeze/thaw and ultra-sonification and centrifuged. The supernatant was used for the determination of intracellular metabolites.
MS-MS analysis was performed on an Esquire HCT ultra ion trap mass spectrometer (Bruker Daltonics, Bremen, Germany) coupled to an HPLC 1100-System (Agilent, Waldbronn, Germany) consisting of binary pump G1312A, degasser G1379A, well-plate sampler G1367A and column thermostat G1330B. […] The following parameters were applied: nebulizer 45 psi, dry gas 10 l/min, dry temperature 300°C, capillary 4100 V, scan range 200 - 600 m/z.

[4] = Individual 1, nominal value from optimization
[5] = Individual 2, nominal value from optimization
[6] = Individual 3, nominal value from optimization
[7] = Individual 1, nominal value from optimization, per ml intracellular volume
[8] = Individual 2, predicted via relative abundance approach from individual 1 and CYP3A4 protein concentration

Row | Compound | κPON (rate constant of PON mediated lactone hydrolysis) (PON enzymes; Individual 1) | κPON (rate constant of PON mediated lactone hydrolysis) (PON enzymes; Individual 2) | κPON (rate constant of PON mediated lactone hydrolysis) (PON enzymes; Individual 3) | κex (apparent rate constant of export) [1, 4] | κim (apparent rate constant of import) [1, 4] [µL/min] | κex (apparent rate constant of export) [1, 5] | κim (apparent rate constant of import) [1, 5] [µL/min] | κex (apparent rate constant of export) [1, 6] | κim (apparent rate constant of import) [1, 6] [µL/min] | kCR (rate constant of spontaneous hydrolysis of the lactone) [2] [min⁻¹] | rmax,3A4 (maximal rate of CYP3A4 hydroxylation to the labelled metabolite) (CYP3A4; [7]) [pmol/min/mL] | rmax,3A4 (maximal rate of CYP3A4 hydroxylation to the labelled metabolite) (CYP3A4; [8]) [pmol/min/mL] | ratio of intracellular AUC 0-600 min to extracellular AUC 0-600 min [3] | ratio of intracellular c max to extracellular c max [3]
1 | CC(C)c1c(C(=O)Nc2ccccc2)c(-c2ccccc2)c(-c2ccc(F)cc2)n1CC[C@@H]1C[C@@H](O)CC(=O)O1 [ASL, atorvastatin lactone] | 308 10^-3 min^-1 | 99.2 10^-3 min^-1 | 0.00 10^-3 min^-1 | 21.8 µL/min | 275 | 2.48 µL/min | 25.8 | 10.5 µL/min | 82.7 | 0.0025 |  |  |  | 
2 | CC(C)c1c(C(=O)Nc2ccccc2O)c(-c2ccccc2)c(-c2ccc(F)cc2)n1CC[C@@H]1C[C@@H](O)CC(=O)O1 [ASLoOH, ortho-hydroxy-atorvastatin lactone] |  |  |  | 2.67 µL/min | 26.1 | 86.3 µL/min | 530 | 0.77 µL/min | 2.43 |  | 2756 | 1640 |  | 
3 | CC(C)c1c(C(=O)Nc2ccc(O)cc2)c(-c2ccccc2)c(-c2ccc(F)cc2)n1CC[C@@H]1C[C@@H](O)CC(=O)O1 [ASLpOH, para-hydroxy-atorvastatin lactone] |  |  |  | 1.13 µL/min and 33.7 µL/min |  | 1.01 µL/min and 7.24 µL/min |  | 0.59 µL/min and 8.59 µL/min |  |  | 1228 | 731 | 38.2 | 34.5
4 | CC(C)c1c(C(=O)Nc2ccccc2O)c(-c2ccccc2)c(-c2ccc(F)cc2)n1CCC(O)CC(O)CC(=O)O (stereo not shown) [ASoOH, ortho-hydroxy-atorvastatin acid] |  |  |  | 1.60 µL/min | 0.39 | 3.62 µL/min | 0.22 | 0.91 µL/min | 0.00 |  | 3345 | 1991 | 4.5 | 2.5
5 | CC(C)c1c(C(=O)Nc2ccc(O)cc2)c(-c2ccccc2)c(-c2ccc(F)cc2)n1CC[C@@H](O)C[C@@H](O)CC(=O)O [ASpOH, para-hydroxy-atorvastatin acid] |  |  |  | 0.80 µL/min | 3.96 | 1.25 µL/min | 2.01 | 0.52 µL/min | 2.53 |  | 1108 | 660 |  | 
6 | hydroxy-atorvastatin lactones (para- and ortho-) [ASLOH] | 280 10^-3 min^-1 | 545 10^-3 min^-1 | 82.9 10^-3 min^-1 |  |  |  |  |  |  |  |  |  |  | 
